Results taken from PMC10094617, “Iron(III) Complexes with Non-Steroidal Anti-Inflammatory Drugs: Structure, Antioxidant and Anticholinergic Activity, and Interaction with Biomolecules” (International Journal of Molecular Sciences, 2023).

Columns and labels:
[1] = target: T1, electric eel acetylcholinesterase (eeAChE) (Electrophorus electricus, UniProt O42275); experiment: Inhibition of acetylcholinesterase (modified Ellman's method); format: biochemical; conditions: 10^−3 M of the compound; pH 7.4, 37 °C
T1 construct: purchased J&K Scientific Co. (Beijing, China)
T1 sequence (O42275 24-633): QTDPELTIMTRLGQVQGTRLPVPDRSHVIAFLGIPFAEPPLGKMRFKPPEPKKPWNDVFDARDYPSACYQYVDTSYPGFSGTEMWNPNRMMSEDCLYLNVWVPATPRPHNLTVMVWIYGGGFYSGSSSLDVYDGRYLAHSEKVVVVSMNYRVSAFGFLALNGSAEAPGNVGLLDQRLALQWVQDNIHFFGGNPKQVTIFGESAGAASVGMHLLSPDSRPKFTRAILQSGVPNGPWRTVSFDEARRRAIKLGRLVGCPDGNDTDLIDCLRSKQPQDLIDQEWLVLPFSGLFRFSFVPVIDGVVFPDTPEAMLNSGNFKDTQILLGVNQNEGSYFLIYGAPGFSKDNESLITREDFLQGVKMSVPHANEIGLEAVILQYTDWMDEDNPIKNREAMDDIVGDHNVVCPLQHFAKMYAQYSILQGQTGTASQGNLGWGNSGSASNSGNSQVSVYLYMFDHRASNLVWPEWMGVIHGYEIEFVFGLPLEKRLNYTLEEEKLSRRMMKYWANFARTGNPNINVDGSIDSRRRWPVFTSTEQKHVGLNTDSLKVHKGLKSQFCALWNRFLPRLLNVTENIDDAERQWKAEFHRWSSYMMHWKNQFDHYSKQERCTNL
Experimental: (§1) In the study of cholinesterase inhibitors, the inhibitory effect of the compounds (the NSAIDs and their complexes 1–3) against AChE and BuChE was examined using a modified methodology based on Ellman’s method.
(§2) The ability of the compounds to inhibit AChE and BuChE was evaluated using UV-vis spectroscopy. All the assays were carried out in a 0.1M NaH2PO4/Na2HPO4 buffer at a pH = 7.4. Enzyme solutions were prepared with 2.0 U/mL for AChE and 3.0 U/mL for BuChE. A reaction mixture containing 20 μL of phosphate buffer, 100 μL of DTNB (1-mM), and 40 μL of the enzyme (AChE and BuChE) was incubated with 20 μL of the compounds at various concentrations at 37 °C for 15 min. The reaction was started by the addition of the substrate (20-μL) of ATCI or BTCI solution (1-mM), respectively, and incubation for additional 3 min.
(§3) The enzyme activity was determined by measuring the increase in absorbance at 2-min intervals at 412 nm at 37 °C (ε = 14,150 M^−1cm^−1).
The rate of inhibition of each enzyme by the compounds was calculated according to the following expression:(1) I%=(1−VB/VA)×100 where VB and VA indicate the absorbance measured for ChEs in the presence and absence of inhibitors, respectively. The results are expressed as the average of three repetitions of the tests performed and the standard deviation was less than 3% of the mean. The selectivity index (SI), defined as IC50 BuChE/IC50 AChE, was also calculated. Neostigmine methyl sulfate was used as the appropriate standard.

[2] = Solubility of the complexes; format: physicochemical
[3] = target: T2, equine serum butyrylcholinesterase (eqBuChE) (Equus caballus, UniProt P81908); experiment: Inhibition of butyrylcholinesterase (modified Ellman's method); format: biochemical; conditions: for BuChE (I%) inhibition rate: 10^−3 M of the compound, pH 7.4, 37 °C; for SI (selectivity index = IBuChE/IAChE): ratio of inhibition rates at 10^−3 M
T2 construct: purchased J&K Scientific Co. (Beijing, China); host or cells: equine serum (by the product's name)
T2 sequence (P81908 whole entry): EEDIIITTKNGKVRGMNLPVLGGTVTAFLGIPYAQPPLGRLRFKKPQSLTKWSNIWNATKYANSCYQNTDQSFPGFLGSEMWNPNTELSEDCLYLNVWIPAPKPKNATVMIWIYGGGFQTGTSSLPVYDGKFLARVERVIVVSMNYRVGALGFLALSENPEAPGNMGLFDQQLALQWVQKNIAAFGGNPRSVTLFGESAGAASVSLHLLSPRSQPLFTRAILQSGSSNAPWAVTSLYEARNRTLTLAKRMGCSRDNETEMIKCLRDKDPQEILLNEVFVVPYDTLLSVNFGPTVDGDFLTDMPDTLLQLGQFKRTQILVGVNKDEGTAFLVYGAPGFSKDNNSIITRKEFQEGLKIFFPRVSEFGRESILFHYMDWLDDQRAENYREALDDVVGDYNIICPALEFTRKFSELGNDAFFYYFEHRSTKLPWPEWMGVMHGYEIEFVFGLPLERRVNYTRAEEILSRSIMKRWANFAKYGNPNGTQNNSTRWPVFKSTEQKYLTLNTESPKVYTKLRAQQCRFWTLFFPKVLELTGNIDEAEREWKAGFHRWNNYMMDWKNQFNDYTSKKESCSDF
Experimental: as §1, §2, §3
The rate of inhibition of each enzyme by the compounds was calculated according to the following expression:(1) I%=(1−VB/VA)×100 where VB and VA indicate the absorbance measured for ChEs in the presence and absence of inhibitors, respectively. […] Neostigmine methyl sulfate was used as the appropriate standard.

Substance | AChE (I%) inhibition rate [1] [%] | solubility [2] | BuChE (I%) inhibition rate [3] [%] | SI (selectivity index = IBuChE/IAChE) [3]
[Fe3O(dicl)6(py)3]Cl∙py [Complex 2] | 3.56 ± 0.11 | Soluble in DMSO | 74.36 ± 1.40 | 20.89
[Fe3O(dicl)6(MeOH)3][FeCl4]·Hdicl·1.5MeOH∙H2O [Complex 3] | 3.55 ± 1.26 | Soluble in DMSO | 76.65 ± 1.95 | 21.59
